In this experiment the test system is Xenograft tumors.

Where two headings read alike, the source gives them in different places.

Source text: Xenograft tumors derived from luciferase-expressing MDA-MB-231 and SUM159 cells will be implanted orthotopically in female nude mice. […] Initial dose of the aptamers will follow the previous animal studies (weekly intra-tumoral injection; 2000 pmol each time delivered in 10 sub-injections). The optimal dose will be determined empirically based on the effect on tumor volumes. The lapatinib plus imatinib group will be used to compare the tumor suppression efficacy of drug treatment with the aptamers. […] Tumor volume will be measured weekly with a caliper, and also by an IVIS imaging system (Xenogen) which can reveal potential metastatic sites. Apoptosis will be assessed by TUNEL assay of the tumor tissues; proliferation will be assayed by in vivo BrdU incorporation analysis. Primary tumor with adjacent normal tissues will be examined by hematoxylin/eosin (H&E) staining. Tumor invasion will be assessed based on the extent of infiltration into surrounding tissues, the margins from surrounding tissues, and desomoplastic stromal reaction by smooth muscle actin staining. Human origin of the invasive cells will be confirmed by staining for human cytokeratin.

Consider `Cc1ccc(NC(=O)c2ccc(CN3CCN(C)CC3)cc2)cc1Nc1nccc(-c2cccnc2)n1` [imatinib], for which the tumor growth entry (mouse, in vivo, po, 100 mg/kg) was “not either drug alone”.
`CS(=O)(=O)CCNCc1ccc(-c2ccc3ncnc(Nc4ccc(OCc5cccc(F)c5)c(Cl)c4)c3c2)o1` [lapatinib]: the tumor growth result (oral gavage, 100 mg/kg of each drug, in a month, preliminary results, data not shown) was “not either drug alone”.

The values are drawn from patent US20180044738A1, “METHOD OF DIAGNOSING BREAST CANCER, MONITORING TREATMENT OF BREAST CANCER, AND TREATING BREAST CANCER” (University Of Cincinnati, priority 2016, published 2018).
